Test results: the NIST ThermoML archive (doi:10.1021/je8003723)

What was measured:
[1] = 308.15 K, 101.3 kPa, Liquid; for viscosity: Capillary tube (Ostwald / Ubbelohde) method; for mass density: Pycnometric method; for speed of sound: Sing-around technique in a fixed-path interferometer
[2] = xn = mol fraction of the nth substance listed; conditions: 308.15 K, 101 kPa, Liquid; for viscosity: Capillary tube (Ostwald / Ubbelohde) method; for mass density: Pycnometric method; for speed of sound: Sing-around technique in a fixed-path interferometer

CC(=O)CC(C)C [4-methylpentan-2-one]
[1]
Conditions | mass density [kg/m3] | speed of sound [m/s] | viscosity [mPa·s]
– | 786.8 | 1150 | 0.455

CC(=O)CC(C)C [4-methylpentan-2-one] + N#CCc1ccccc1
[2], x2 = 0
Conditions | mass density [kg/m3] | speed of sound [m/s] | viscosity [mPa·s]
– | 786.8 | 1150 | 0.455

N#CCc1ccccc1 [benzeneacetonitrile]
[1]
Conditions | mass density [kg/m3] | speed of sound [m/s] | viscosity [mPa·s]
– | 1003.2 | 1518 | 1.585

N#CCc1ccccc1 [benzeneacetonitrile] + CC(=O)CC(C)C
[2]
Conditions | mass density [kg/m3] | speed of sound [m/s] | viscosity [mPa·s]
x1 = 0.0271 | 792.5 | 1166 | 0.475
x1 = 0.16 | 823.3 | 1212 | 0.573
x1 = 0.2926 | 852.2 | 1261 | 0.679
x1 = 0.3931 | 874.6 | 1298 | 0.775
x1 = 0.5217 | 902.8 | 1340 | 0.91
x1 = 0.6436 | 928.9 | 1382 | 1.049
x1 = 0.7407 | 949.8 | 1414 | 1.164
x1 = 0.8599 | 976 | 1459 | 1.338
x1 = 0.9758 | 998.1 | 1498 | 1.523
x1 = 1 | 1003.2 | 1518 | 1.585

N#CCc1ccccc1 [benzeneacetonitrile] + CCC(=O)CC
[2]
Conditions | mass density [kg/m3] | speed of sound [m/s] | viscosity [mPa·s]
x1 = 0.0235 | 806 | 1199 | 0.388
x1 = 0.1407 | 835.4 | 1237 | 0.474
x1 = 0.2569 | 861.5 | 1278 | 0.567
x1 = 0.358 | 883.3 | 1314 | 0.665
x1 = 0.4803 | 909 | 1354 | 0.79
x1 = 0.6048 | 933.7 | 1397 | 0.936
x1 = 0.6943 | 951.2 | 1421 | 1.064
x1 = 0.8378 | 976.7 | 1471 | 1.281
x1 = 0.9722 | 998.9 | 1496 | 1.528
x1 = 1 | 1003.2 | 1518 | 1.585

N#CCc1ccccc1 [benzeneacetonitrile] + CCC(C)=O
[2]
Conditions | mass density [kg/m3] | speed of sound [m/s] | viscosity [mPa·s]
x1 = 0.0205 | 796.1 | 1167 | 0.334
x1 = 0.1218 | 825.9 | 1208 | 0.412
x1 = 0.2283 | 854 | 1265 | 0.497
x1 = 0.3188 | 876.8 | 1308 | 0.583
x1 = 0.4403 | 905.5 | 1356 | 0.72
x1 = 0.5655 | 931.3 | 1397 | 0.868
x1 = 0.6706 | 950.7 | 1421 | 1.015
x1 = 0.8086 | 974.1 | 1454 | 1.228
x1 = 0.9657 | 998.1 | 1497 | 1.498
x1 = 1 | 1003.2 | 1518 | 1.585

N#CCc1ccccc1 [benzeneacetonitrile] + CCCC(C)=O
[2]
Conditions | mass density [kg/m3] | speed of sound [m/s] | viscosity [mPa·s]
x1 = 0.0221 | 797 | 1189 | 0.41
x1 = 0.1416 | 826.8 | 1228 | 0.495
x1 = 0.2622 | 856 | 1271 | 0.6
x1 = 0.3564 | 877.5 | 1313 | 0.685
x1 = 0.4811 | 904.2 | 1363 | 0.819
x1 = 0.6125 | 931.5 | 1394 | 0.976
x1 = 0.7133 | 950.9 | 1418 | 1.1
x1 = 0.8389 | 974.8 | 1456 | 1.29
x1 = 0.9736 | 998.6 | 1499 | 1.509
x1 = 1 | 1003.2 | 1518 | 1.585

CCC(C)=O [butanone]
[1]
Conditions | mass density [kg/m3] | speed of sound [m/s] | viscosity [mPa·s]
– | 789.2 | 1157 | 0.316

CCC(C)=O [butanone] + N#CCc1ccccc1
[2], x2 = 0
Conditions | mass density [kg/m3] | speed of sound [m/s] | viscosity [mPa·s]
– | 789.2 | 1157 | 0.316

CCCC(C)=O [pentan-2-one]
[1]
Conditions | mass density [kg/m3] | speed of sound [m/s] | viscosity [mPa·s]
– | 790.8 | 1179 | 0.394

CCCC(C)=O [pentan-2-one] + N#CCc1ccccc1
[2], x2 = 0
Conditions | mass density [kg/m3] | speed of sound [m/s] | viscosity [mPa·s]
– | 790.8 | 1179 | 0.394

CCC(=O)CC [pentan-3-one]
[1]
Conditions | mass density [kg/m3] | speed of sound [m/s] | viscosity [mPa·s]
– | 800 | 1185 | 0.371

CCC(=O)CC [pentan-3-one] + N#CCc1ccccc1
[2], x2 = 0
Conditions | mass density [kg/m3] | speed of sound [m/s] | viscosity [mPa·s]
– | 800 | 1185 | 0.371
